Reference: patent publication US8519124B2, “Chemokine receptor antagonists and use thereof” (Ono Pharmaceutical Co., Ltd., priority 2005, dated 2013)

Key:
[1] = Measurement of maximum plasma level (Cmax) and bioavailability (BA); format: in vivo; settings: male, Crl:CD(SD), po; rat plasma; orally administered solution 10 mg/kg, fasting
Procedure: Measurement of Maximum Plasma Level (CMax) and Bioavailability (BA)
A test compound is weighed, dissolved in Solutol (trade name; manufactured by BASF-TAKEDA Vitamins Ltd.)/propylene glycol=7/3 which is heated to 60° C. and adjusted to 20 mg/mL; thereafter, the test compound is diluted by 10 times with distilled water for injection, and further diluted by 2 times with saline solution, by which intravenously administered solution is eventually made. The test compound is weighed, dissolved in Solutol (trade name; manufactured by BASF-TAKEDA Vitamins Ltd.)/propylene glycol=7/3 which is heated to 60° C., and adjusted to 20 mg/mL; thereafter, the test compound is diluted by 10 times with distilled water for injection, by which orally administered solution is eventually made. Intravenous administration is performed by rapid single administration (n=3) of intravenously administered solution (1 mg/kg) from the tail vein of Crl:CD(SD) Rat (male, manufactured by CHARLES RIVER LABORATORIES JAPAN, INC). Oral administration is performed by forced administration (n=3) of orally administered solution (10 mg/kg) into the stomach of Crl:CD(SD) Rat (male, manufactured by CHARLES RIVER LABORATORIES JAPAN, INC.) using a sonde. The administration is conducted under fasting conditions; water is freely ingested. A 0.35 mL blood sample is taken from cervical vein by using Heparinized Syringe at 15 minutes, 30 minutes, 1 hour, 2 hours, 4 hours, 6 hours, 8 hours, and 24 hours after administration. The obtained blood is stored in ice, and after centrifugation at 12,000 rpm for 5 minutes, blood plasma is fractionated. The blood plasma is preserved at a temperature of −80° C. The sample of blood plasma preserved at a temperature of −80° C. is dissolved; inner standard solution (100 μL) and acetonitrile (2 mL) are added to the blood plasma sample 100 μL and stirred; and the sample is centrifuged at 2,500 rpm for 10 minutes. After the supernatant is evaporated to dryness by means of a centrifugal concentrator, 67% dimethyl sulfoxide solution (150 μL) is added to the residue and dissolves them again; and 20 μL of the solution is analyzed by means of LC/MS/MS.
The analysis by means of LC/MS/MS should be performed, for example, under the following conditions:
Measurement device: Waters 2795 (manufactured by Waters Corporation)
Analytical column: Unison UK-C18, 3.0 μm particle size, 2.0 mm×30 mm (manufactured by Imtakt Corporation)
Analytical column temperature: Room temperature
Moving bed: 5 mM IPC-PFAA-7 solution/acetonitrile (9/1→1/9)
Measurement device: Quatro micro API (manufactured by Micromass Communications Inc.)
Method for ionization: ES+
Capillary electric potential: 3.30 kV
Source temperature: 120° C.
Desolvation temperature: 350° C.
The monitor ion which was suitable for each sample was selected.
The concentration transition in the rat blood plasma of the test compound is analyzed by means of non-compartment analysis method by using WinNonlin 4.0.1 (manufactured by Pharsight Corporation) to calculate the maximum blood concentration Cmax and the area under the blood concentration curve AUC.
BA is calculated by means of the following formula: BA(%)={(AUCp.o./Dosep.o.)/(AUCi.v./Dosei.v.)}×100
AUCp.o.: AUC in oral administration
Dosep.o.: Amount of the drug orally administered
AUCi.v.: AUC in intravenous administration
Dosei.v.: Amount of the drug intravenously administered

[2] = system: DOPA liposome (artificial lipid membrane); assay: Artificial lipid membrane binding by using Biacore S51 system; settings: 50 μM compound; for Judgement (phospholipidosis inductive effect): DOPA liposome; for Corrected value of binding response (RU): DOPA liposome on Sensor Chip L1, 37° C., PBS/5% DMSO (pH 7.4 or PH 6.0)
Procedure: Artificial Lipid Membrane Binding Account by Using Biacore (Registered Trademark) S51 System
10 mM of 1,2-Dioleoyl-sn-Glycero-3-Phosphate, Monosodium Salt (hereinafter abbreviated as DOPA) chloroform solution was evaporated to dryness by means of an aspirator, and 0.6 mL of PBS/5% dimethyl sulfoxide (hereinafter abbreviated as DMSO) was added. The chloroform solution was fully suspended by means of a vortex mixer, and the freezing and thawing were repeated for 5 times. Liposome was created by means of a liposome adjustment instrument (manufactured by Avestin Inc.) and 2 syringes, and was diluted to 0.5 mM with PBS/5% DMSO just prior to immobilization.
(ii) Measurement Compound Adjustment
The 38 μL of 1×PBS is added to 2 μL DMSO solution (10 mM), and further the 360 μL 1×PBS/5% DMSO was added; the 50 μM of final concentration in the 1×PBS/5% DMSO was adjusted and measured.
All of the following analysis used Biacore® S51 system; the measurement conditions were set by Biacore S51 Control Soft.
The measurement temperature was set to be 37° C., and the 1×PBS/5% DMSO (pH 7.4 or PH 6.0) was used as a buffer. Series S Sensor Chip L1 was used for a sensor chip. The DOPA was immobilized in one of the measuring spots on the sensor surface, and the central spot was used as a reference.
Immobilization of liposome was conducted at a flow rate of 10 μL/min for about 3 minutes; then the compound was added at a flow rate of 30 μL/min and the interaction was measured. The measurement conditions are as follows:
Assay buffer: PBS/5% DMSO (pH 7.4 or PH 6.0)
Measurement temperature: 37° C.
Sensor chip: Series S Sensor Chip L1
Flow rate: 10 μL/min at the time of the liposome immobilization; 30 μL/min at the time of the measurement of interaction with the compound
Regeneration: 20 mM CHAPS (3-[(3-Cholamidopropyl)dimethylammonio]-1-propanesulfonate), Isopropanol/50 mM sodium hydroxide solution=40/60 (volume ratio) mixture (60 seconds)
The data processing was conducted by means of method of Abdiche et al. (Analytical biochemistry, 328, 233-243 (2004)) by using Biacore S51 Evaluation Soft.
Regarding the value of binding response (RU) in which the value of reference was subtracted, it was divided by a sample molecular weight after minute error of the DMSO concentration included in the sample solution was corrected. In addition, the value obtained here was divided by an amount of capture at the time of the cycle because the value obtained here was proportional to the amount of capture of the liposome; further, the value was multiplied by a million to be considered as a corrected value (Corrected value=1000000)×RU (test compound)/molecular quantity (test compound) RU (liposome)).
Propranolol, Amiodarone, Desipramine, Imipramine and Procaine were added as the controls, and it was recognized that the variation of the binding response was within ca. 10 to 15%.
The compound, in which a value of the binding response after the correction was equal to or more than 150, was determined as positive.

Row | Cmax [1] [ng/mL] | Corrected value of binding response (RU) [2] [RU] | SMILES | Judgement (phospholipidosis inductive effect) [2]
1 | 80 | 66.6 | CC(C)CN1CCC2(CCN(Cc3ccc(C(=O)N(Cc4ncc[nH]4)Cc4ncc[nH]4)cc3)CC2)C1 [Example 8 (113), N,N-bis(1H-imidazol-2-ylmethyl)-4-[(2-isobutyl-2,8-diazaspiro[4.5]dec-8-yl)methyl]benzamide] | negative
2 | 175 | 77.6 | CC(C)(C)CN1CCC2(CC1)CCN(C(=O)Cc1ccc(CN(Cc3ncc[nH]3)Cc3ncc[nH]3)cc1)C2 [Example 40 (68), 1-(4-{2-[8-(2,2-dimethylpropyl)-2,8-diazaspiro[4.5]dec-2-yl]-2-oxoethyl}phenyl)-N,N-bis(1H-imidazol-2-ylmethyl)methanamine] | negative
3 | 157 | 72.0 | CCC(CC)N1CCC2(CCN(C(=O)c3ccc(CN(Cc4ncc[nH]4)Cc4nccn4C)cc3)C2)CC1 [Example 40 (72), 1-(4-{[8-(1-ethylpropyl)-2,8-diazaspiro[4.5]dec-2-yl]carbonyl}phenyl)-N-(1H-imidazol-2-ylmethyl)-N-[(1-methyl-1H-imidazol-2-yl)methyl]methanamine] | negative
4 | 420 | 36.0 | O=C(CC(=O)N1CCC2(CCN(C3CCCCC3)CC2)C1)N1CCC(N(Cc2ncc[nH]2)Cc2ncc[nH]2)CC1 [Example 65 (4), 1-[3-(8-cyclohexyl-2,8-diazaspiro[4.5]dec-2-yl)-3-oxopropanoyl]-N,N-bis(1H-imidazol-2-ylmethyl)-4-piperidinamine] | negative
